Tests used:
[1] = system: CCR5-dependent HIV-1BaL strain; assay: "cell-free" acute infection test (growth of HIV-1 in pre-activated primary mononuclear cells, p24 antigen); assay type: cell-based; conditions: at the tested doses
Excerpt: Some peptides of the invention have been tested to verify their inhibitory activity against HIV virus-1. Two different tests have been used: the “cell-free ” acute infection test and the test of inhibition of the formation of syncitia. The first test evaluates the growth of HIV-1 in primary mononuclear cells pre-activated in vitro and is closer to the natural model of infection. On the other hand, the test of syncitia inhibition evaluates the capability of an inhibitor to inhibit the membrane fusion induced by HIV and it makes use of cells of a continuous line T CD4+ (PM1) chronically infected with an HIV-1 CCR5-dependent (PM1BaL) strain. In both tests, cells were pre-treated with the peptides before exposition to the virus or to 5 the infected cells. Scalar concentrations for each peptide have been tested to calculate the 50% inhibitory dose (ID50), i.e. the dose capable of reducing by 50% the values of the untreated controls. The ID50 values (expressed as micromolar values) of different peptides in the acute infection test are illustrated in the following Table:
The ability of the mutants obtained as described in Example 2, to inhibit the infection by the prototypic macrophage-tropic HIV-1BaL strain, was evaluated in primary cultures of activated mononuclear cells from peripheral blood. The procedure used to infect PBL and to evaluate the production of p24 antigen is described in literature (Scarlatti et al., Nat. Med. November 3:11 1259-65, 1997).

[2] = system: HIV-1 CCR5-dependent (PM1BaL) strain; assay: test of inhibition of the formation of syncitia (PM1 cells chronically infected with HIV-1BaL); assay type: cell-based; conditions: PM1 line infected by HIV-1BaL
Excerpt: Some peptides of the invention have been tested to verify their inhibitory activity against HIV virus-1. Two different tests have been used: the “cell-free ” acute infection test and the test of inhibition of the formation of syncitia. The first test evaluates the growth of HIV-1 in primary mononuclear cells pre-activated in vitro and is closer to the natural model of infection. On the other hand, the test of syncitia inhibition evaluates the capability of an inhibitor to inhibit the membrane fusion induced by HIV and it makes use of cells of a continuous line T CD4+ (PM1) chronically infected with an HIV-1 CCR5-dependent (PM1BaL) strain. In both tests, cells were pre-treated with the peptides before exposition to the virus or to 5 the infected cells. Scalar concentrations for each peptide have been tested to calculate the 50% inhibitory dose (ID50), i.e. the dose capable of reducing by 50% the values of the untreated controls. The ID50 values (expressed as micromolar values) of different peptides in the acute infection test are illustrated in the following Table: […]

Substance	capability to inhibit the acute infection (in words) [1]	capability to inhibit the formation of syncitia (in words) [2]
SGKCSNPAVVFV [RANTES peptide used as control]	no antiviral activity	–
YTSGKCSNPAVV [B, RANTES peptide used as control]	no antiviral activity	–
YFYTSGKCSNPA [RANTES peptide used as control]	no antiviral activity	–
Ace-CFAYIARPLPRAHIKEYFY-NH2 [Peptide 2]	marked increase in the capability to, inhibit the acute infection	increased capability to inhibit the formation of syncitia
Ace-FAYIARPLPRAHIKEYFY-NH2 (Ac-FAYIARPLPRAHIKEYFY-NH2) [Peptide 1]	marked increase in the capability to, inhibit the acute infection	increased capability to inhibit the formation of syncitia

From US6709649B1, “RANTES derived peptides with anti-HIV activity” (Fondazione Centro San Raffaele Del Monte Tabor, priority 1998, dated 2004)
